The values that follow come from ChEMBL document CHEMBL1201862, “PubChem BioAssay data set” (2004).

Some test systems named below: KM12; SK-MEL-28; DMS-114; SK-MEL-5; IGROV-1; M19-MEL; TK-10; KM-20L2; OVCAR-8; SNB-19; SNB-75; M14; SW-620; OVCAR-5; NCI-H522; XF498; HL-60; RXF 393; SR; Malme-3M.
Common to all, as to test: NCI tumour cell line growth inhibition, 48 h

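Step 1: Grow cells in 96-well plates. Step 2: Expose to compound for 48 hours at 5 concentrations. Step 3: Interpolate endpoints linearly; if unreached, use highest concentration. Here, GI50 denotes the concentration required for 50% inhibition of growth.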 Calls of active or inactive are those of the source. Rule as the data show it: active = GI50 up to about 1.1 µM and inactive = higher. Where only a bound is given, the exact number is not on record here.

For the compound `COc1ccc(/C=C/C(=O)C(C)(C)C)cc1OC`, the GI50 is 43.9 µM (inactive) with KM12; 74.6 µM (inactive) with SK-MEL-28; 39.7 µM (inactive) in the test on DMS-114; 54.1 µM (inactive) in the test with SK-MEL-5; > 100 µM (inactive) in the test on IGROV-1; > 100 µM (inactive) in the test with M19-MEL. The GI50 is > 100 µM (inactive) in the test with TK-10; 41.8 µM (inactive) with KM-20L2; > 100 µM (inactive) in the test with OVCAR-8; > 100 µM (inactive) in the test on SNB-19; 34.4 µM (inactive) in the test on SNB-75; > 100 µM (inactive) with M14. The GI50 was 79.4 µM (inactive) with SW-620, > 100 µM (inactive) in the test with OVCAR-5, 34.8 µM (inactive) in the test on NCI-H522 and 66.8 µM (inactive) in the test with XF498.

As to `Cc1cn(C2CC(n3cc(Cn4ccc(=O)[nH]c4=O)nn3)C(CO)O2)c(=O)[nH]c1=O` (stereo unspecified), the GI50 with KM12 was > 100 µM (inactive); with SK-MEL-28, > 100 µM (inactive); in the test with HL-60 it was 95.1 µM (inactive); with SK-MEL-5 it was > 100 µM (inactive); in the test on RXF 393, > 100 µM (inactive); in the test with TK-10, > 100 µM (inactive). Besides, the GI50 was > 100 µM (inactive) in the test on OVCAR-8; > 100 µM (inactive) in the test with SNB-19; < 0.01 µM (active) with SR; > 100 µM (inactive) in the test on SNB-75; > 100 µM (inactive) with M14; > 100 µM (inactive) with SW-620. Further, the GI50 in the test on OVCAR-5 is > 100 µM (inactive).

As to `C#CCCCCC#Cc1ccccc1C(=O)OC`, the GI50 with KM12 is 58.2 µM (inactive); in the test with SK-MEL-28, 25.8 µM (inactive); with DMS-114, 17.3 µM (inactive); with HL-60 it was 10.2 µM (inactive); in the test with SK-MEL-5, 58.6 µM (inactive); in the test on Malme-3M it was 77.6 µM (inactive). Moreover, the GI50 was 21.4 µM (inactive) in the test on RXF 393; 89.3 µM (inactive) with IGROV-1; > 100 µM (inactive) in the test with TK-10; 58.2 µM (inactive) in the test on KM-20L2; 15.5 µM (inactive) in the test on OVCAR-8; > 100 µM (inactive) in the test on SNB-19. Also, the GI50 is 2.28 µM (inactive) with SR; 20.6 µM (inactive) in the test on SNB-75; > 100 µM (inactive) with M14; 21.1 µM (inactive) in the test on SW-620; 52.8 µM (inactive) with OVCAR-5; 65.8 µM (inactive) with XF498.

Consider `COc1cc(OC)cc(N2CCC(c3c(N)nc(N)nc3Cl)CC2)c1`, for which the GI50 with KM12 was 66.4 µM (inactive); in the test with SK-MEL-28 it was 52.8 µM (inactive); in the test on HL-60 it was 18 µM (inactive); with SK-MEL-5 it was 24.8 µM (inactive); with Malme-3M, 31 µM (inactive); with RXF 393, > 100 µM (inactive). Besides, the GI50 in the test on IGROV-1, in the test on M19-MEL, in the test with TK-10, with KM-20L2, with OVCAR-8 and in the test with SNB-19 was > 100 µM (inactive) throughout. Further, the GI50 in the test with SNB-75 is 47.6 µM (inactive); in the test on M14, 75.3 µM (inactive); with SW-620, 65 µM (inactive); in the test with OVCAR-5, > 100 µM (inactive); in the test on NCI-H522, 41.3 µM (inactive); in the test on XF498 it was 26.3 µM (inactive).

As for `Cc1cc2c(cc1Cl)Sc1n[nH]c(=O)n1S2(=O)=O`, the GI50 is > 100 µM (inactive) in the test on KM12; > 100 µM (inactive) with SK-MEL-28; > 100 µM (inactive) in the test on HL-60; 35.8 µM (inactive) in the test on SK-MEL-5; 40.6 µM (inactive) with Malme-3M; > 100 µM (inactive) with IGROV-1. The GI50 with TK-10, in the test with OVCAR-8, in the test on SNB-19, with SNB-75, in the test with M14 and in the test with SW-620 was > 100 µM (inactive) each time. Moreover, the GI50 in the test on OVCAR-5 is > 100 µM (inactive); with NCI-H522 it was 87.5 µM (inactive).

On to `CC1(C)C(=O)OC(n2cc(F)c(=O)[nH]c2=O)C1=O` (stereo unspecified), for which the GI50 in the test with KM12, in the test on SK-MEL-28, with DMS-114, in the test on HL-60, with Malme-3M and in the test with RXF 393 was > 100 µM (inactive) each time. Also, the GI50 with M19-MEL, with TK-10, with KM-20L2, with OVCAR-8, in the test on SNB-19 and in the test with SNB-75 was > 100 µM (inactive) each time. In addition, the GI50 with M14, with SW-620, in the test on OVCAR-5, in the test on NCI-H522 and in the test on XF498 was > 100 µM (inactive) throughout.

As to `NC(=O)c1ncn2c1CNC(=O)C2`, the GI50 in the test on KM12, with SK-MEL-28, in the test with HL-60, in the test on SK-MEL-5, in the test with Malme-3M and in the test on RXF 393 was > 100 µM (inactive) each time. Also, the GI50 in the test on IGROV-1, in the test on TK-10, in the test with OVCAR-8, with SNB-19, in the test on SR and in the test with SNB-75 was > 100 µM (inactive) in each case. Moreover, the GI50 in the test on M14, in the test on SW-620, in the test with OVCAR-5 and in the test on NCI-H522 was > 100 µM (inactive) in each case.

Consider `Cc1cc2c(=O)c3ccccc3[nH]c2c(C(N)=O)c1C`, for which the GI50 in the test on KM12, in the test on SK-MEL-28, in the test on DMS-114, in the test on SK-MEL-5, in the test with Malme-3M and in the test with RXF 393 was > 100 µM (inactive) in each case. Moreover, the GI50 in the test with IGROV-1, with M19-MEL, in the test with TK-10, in the test with KM-20L2, with OVCAR-8 and with SNB-19 was > 100 µM (inactive) each time. Besides, the GI50 in the test on SNB-75, in the test with M14, with SW-620, with OVCAR-5, in the test with NCI-H522 and with XF498 was > 100 µM (inactive) throughout.

On to `COc1cc2c(cc1O)CCN(C)[C@H]2Cc1ccc(Oc2c(O)c(OC)cc3c2C[C@H]2c4c(c(OC)c(OC)c(OC)c4-3)CCN2C)cc1` [THALIFABERIDINE], for which the GI50 in the test with KM12 is 4.11 µM (inactive); in the test on SK-MEL-28, 6.56 µM (inactive); in the test on HL-60, 4.24 µM (inactive); in the test with SK-MEL-5, 2.9 µM (inactive); in the test on Malme-3M, 7.85 µM (inactive); in the test with RXF 393, 1.75 µM (inactive). For the same compound, the GI50 was 5.43 µM (inactive) in the test on IGROV-1; 6.11 µM (inactive) in the test on TK-10; 4.16 µM (inactive) with OVCAR-8; 6.34 µM (inactive) in the test on SNB-19; 1.61 µM (inactive) in the test with SR; 4.51 µM (inactive) in the test on SNB-75. The GI50 was 5.4 µM (inactive) with M14, 4.71 µM (inactive) with SW-620, 7.5 µM (inactive) with OVCAR-5 and 5.55 µM (inactive) with NCI-H522.
